Data reported in patent publication EP1200395B1, “UREA DERIVATIVES AS INHIBITORS OF CCR-3 RECEPTOR” (KIRIN BEER KABUSHIKI KAISHA, priority 1999, dated 2001).

target: T1, CCR-3 (Homo sapiens, UniProt P51677); test: Eotaxin-induced chemotaxis of CCR-3 transfectant cells (CCR3/U937); format: cell-based; parameters: expressed in transfected cells; host or cells: U937; settings: 10 µM test compound; eotaxin 1 x 10^-9 M; CCR3/U937 cells (Table 3a)
T1 sequence (P51677 1-355): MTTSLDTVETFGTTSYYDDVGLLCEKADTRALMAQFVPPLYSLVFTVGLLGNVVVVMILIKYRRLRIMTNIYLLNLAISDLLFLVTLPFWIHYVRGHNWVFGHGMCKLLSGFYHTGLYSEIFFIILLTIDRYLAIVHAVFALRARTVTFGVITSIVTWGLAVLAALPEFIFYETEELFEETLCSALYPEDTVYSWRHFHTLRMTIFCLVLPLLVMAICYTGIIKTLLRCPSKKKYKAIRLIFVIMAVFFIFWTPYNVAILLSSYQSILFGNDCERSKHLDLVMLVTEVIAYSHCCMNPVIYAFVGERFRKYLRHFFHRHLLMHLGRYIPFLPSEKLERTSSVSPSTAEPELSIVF
Method: The inhibitory activity of the compounds against eotaxin-induced chemotaxis was determined by measuring the inhibition of migration of CCR-3 transfectant cells (CCR3/U937), using a minor modification of the method described by Ohashi, H. et al., Int Arch Allergy Immunol. […] The chemotaxis assay was performed in a 24-well culture plate. Human eotaxin suspended in assay medium was added to the wells at 1 x 10^-9 M along with test compounds at various concentrations. For a positive control, eotaxin was added to the wells without a test compound, and for a negative control, neither eotaxin nor a test compound was added to the wells. Chemotaxicell (Kurabo Co., Ltd.) having 5 micrometers pore size were inserted into each well and 100 micro liters of CCR-3 transfectant cells suspension were added to the top chamber. The plates were incubated at 37 °C for 1 hour. After incubation, migrated cells in lower wells were diluted and counted by particle size distribution analyzer (CDP-500, Sysmex Co., Ltd.).

Q: Which “Chemotaxis Assay 10 µM (inhibition %)” value does the source give for COC(=O)CCCN(CCCNC(=O)Nc1ccc(Br)cc1)C(C)(C)Cc1ccccc1 [Compound 206] here?
A: 64%

Q: With CC(C)(Cc1ccccc1)N(CCCNC(=O)Nc1ccc(Br)cc1)CCCC(=O)O [Compound 207] as the compound, how does the “Chemotaxis Assay 10 µM (inhibition %)” value read?
A: 50%

Q: CS(=O)(=O)NC(=O)CCCN(CCCNC(=O)Nc1ccc(Br)cc1)C1CCCc2ccccc21 (centres unmarked) [Compound 210] was tested. Which “Chemotaxis Assay 10 µM (inhibition %)” value did it give?
A: 100%

Q: For COC(=O)CCCCN(CCCNC(=O)Nc1ccc(Br)cc1)C1CCCc2ccccc21 (centres unmarked) [Compound 213], which “Chemotaxis Assay 10 µM (inhibition %)” value is on record?
A: 92%

Q: O=C(O)CCCCN(CCCNC(=O)Nc1ccc(Br)cc1)C1CCCc2ccccc21 (centres unmarked) [Compound 214] was tested. Which “Chemotaxis Assay 10 µM (inhibition %)” value did it give?
A: 99%

Q: For CC(=O)OCCCN(CCCNC(=O)Nc1ccc(Br)cc1)C1CCCc2ccccc21 (centres unmarked) [Compound 215], which “Chemotaxis Assay 10 µM (inhibition %)” value is on record?
A: 89%

Q: How did the “Chemotaxis Assay 10 µM (inhibition %)” value turn out when O=C(NCCCN(CCCO)C1CCCc2ccccc21)Nc1ccc(Br)cc1 (centres unmarked) [Compound 216] was run?
A: 100%

Q: Which “Chemotaxis Assay 10 µM (inhibition %)” value does the source give for O=C(NCCCN(CCCO)CCc1ccc(Cl)cc1)Nc1ccccc1 [Compound 219] here?
A: 86%

Q: NC(=O)CN(CCCNC(=O)Nc1ccccc1)CCc1ccc(Cl)cc1 [Compound 220] was tested. Which “Chemotaxis Assay 10 µM (inhibition %)” value did it give?
A: 77%

Q: With C=CCN(CCCNC(=O)Nc1ccccc1)CCc1ccc(Cl)cc1 [Compound 221] as the compound, how does the “Chemotaxis Assay 10 µM (inhibition %)” value read?
A: 100%

Q: For O=C(NCCCN(Cc1ccc(C(=O)O)cc1)C1CCCc2ccccc21)Nc1ccc(Br)cc1 (centres unmarked) [Compound 223], which “Chemotaxis Assay 10 µM (inhibition %)” value is on record?
A: 86%

Q: Which “Chemotaxis Assay 10 µM (inhibition %)” value does the source give for CCOC(=O)C1CC1CN(CCCNC(=O)Nc1ccc(Br)cc1)C1CCCc2ccccc21 (centres unmarked) [Compound 224] here?
A: 75%

Q: How did the “Chemotaxis Assay 10 µM (inhibition %)” value turn out when COC(=O)CCCN(CCCNC(=O)Nc1ccc(C(=O)O)cc1)C1CCCc2ccccc21 (centres unmarked) [Compound 225, Methyl 4-[[3-[4-(carboxy)phenylureido]propyl](1,2,3,4-tetrahydro-1-naphthyl)amino]butylate] was run?
A: 100%

Q: With Cc1ccc(C(C)N(CCCNC(=O)Nc2ccc(Br)cc2)CCCC(=O)O)cc1 (centres unmarked) [Compound 226] as the compound, how does the “Chemotaxis Assay 10 µM (inhibition %)” value read?
A: 100%

Q: With CCN(CCCNC(=O)Nc1ccccc1)CCc1ccc(F)cc1 [Compound 230] as the compound, how does the “Chemotaxis Assay 10 µM (inhibition %)” value read?
A: 100%

Q: CCN(CCCNC(=O)Nc1ccccc1)CCc1ccc(C)cc1 [Compound 231] was tested. Which “Chemotaxis Assay 10 µM (inhibition %)” value did it give?
A: 90%

Q: For CCN(CCCNC(=O)Nc1ccccc1)CCc1ccccc1Cl [Compound 232], which “Chemotaxis Assay 10 µM (inhibition %)” value is on record?
A: 100%

Q: CCN(CCCNC(=O)Nc1ccccc1)CCc1cccc(Cl)c1 [Compound 233] was tested. Which “Chemotaxis Assay 10 µM (inhibition %)” value did it give?
A: 100%

Q: For CCN(CCCNC(=O)Nc1ccccc1)C1CCc2ccccc21 (centres unmarked) [Compound 234], which “Chemotaxis Assay 10 µM (inhibition %)” value is on record?
A: 89%

Q: With O=C(O)CCCN(CCCNC(=O)Nc1ccc(C(=O)O)cc1)C1CCCc2ccccc21 (centres unmarked) [Compound 235] as the compound, how does the “Chemotaxis Assay 10 µM (inhibition %)” value read?
A: 91%

Q: With CCOC(=O)c1cccc(NC(=O)NCCCN(CCCC(=O)O)C2CCCc3ccccc32)c1 (centres unmarked) [Compound 236] as the compound, how does the “Chemotaxis Assay 10 µM (inhibition %)” value read?
A: 97%

Q: For CC(C)CN(CCCNC(=O)Nc1ccccc1)CCc1ccc(Cl)cc1 [Compound 239], which “Chemotaxis Assay 10 µM (inhibition %)” value is on record?
A: 100%

Q: Which “Chemotaxis Assay 10 µM (inhibition %)” value does the source give for O=C(NCCCN(CCc1ccc(Cl)cc1)CC1CCCCC1)Nc1ccccc1 [Compound 240] here?
A: 86%

Q: How did the “Chemotaxis Assay 10 µM (inhibition %)” value turn out when COC(=O)CCCCN(CCCNC(=O)Nc1ccccc1)CCc1ccc(Cl)cc1 [Compound 241] was run?
A: 100%

Q: For CCOC(=O)CCCCCN(CCCNC(=O)Nc1ccccc1)CCc1ccc(Cl)cc1 [Compound 242], which “Chemotaxis Assay 10 µM (inhibition %)” value is on record?
A: 73%

Q: NC(=O)CCN(CCCNC(=O)Nc1ccccc1)CCc1ccc(Cl)cc1 [Compound 243] was tested. Which “Chemotaxis Assay 10 µM (inhibition %)” value did it give?
A: 84%

Q: How did the “Chemotaxis Assay 10 µM (inhibition %)” value turn out when CC(=O)OCCN(CCCNC(=O)Nc1ccccc1)CCc1ccc(Cl)cc1 [Compound 244] was run?
A: 81%

Q: COC(=O)CN(CCCNC(=O)Nc1ccccc1)CCc1ccc(Cl)cc1 [Compound 245] was tested. Which “Chemotaxis Assay 10 µM (inhibition %)” value did it give?
A: 100%

Q: CC(c1ccc([N+](=O)[O-])cc1)N(CCCNC(=O)Nc1ccc(Br)cc1)CCCC(=O)O (centres unmarked) [Compound 259] was tested. Which “Chemotaxis Assay 10 µM (inhibition %)” value did it give?
A: 100%

Q: With N#Cc1cccc(NC(=O)NCCCN(CCCC(=O)O)C2CCCc3ccccc32)c1 (centres unmarked) [Compound 260] as the compound, how does the “Chemotaxis Assay 10 µM (inhibition %)” value read?
A: 100%

Q: COc1cccc(NC(=O)NCCCN(CCCC(=O)O)C2CCCc3ccccc32)c1 (centres unmarked) [Compound 261] was tested. Which “Chemotaxis Assay 10 µM (inhibition %)” value did it give?
A: 100%

Q: How did the “Chemotaxis Assay 10 µM (inhibition %)” value turn out when CC(=O)c1cccc(NC(=O)NCCCN(CCCC(=O)O)C2CCCc3ccccc32)c1 (centres unmarked) [Compound 262] was run?
A: 62%

Q: CSc1cccc(NC(=O)NCCCN(CCCC(=O)O)C2CCCc3ccccc32)c1 (centres unmarked) [Compound 263] was tested. Which “Chemotaxis Assay 10 µM (inhibition %)” value did it give?
A: 100%

Q: How did the “Chemotaxis Assay 10 µM (inhibition %)” value turn out when CSc1ccc(NC(=O)NCCCN(CCCC(=O)O)C2CCCc3ccccc32)cc1 (centres unmarked) [Compound 264] was run?
A: 100%

Q: With O=C(O)CCCN(CCCNC(=O)Nc1ccc2ccccc2c1)C1CCCc2ccccc21 (centres unmarked) [Compound 265] as the compound, how does the “Chemotaxis Assay 10 µM (inhibition %)” value read?
A: 95%

Q: O=C(O)CCCN(CCCNC(=O)Nc1ccc(OC(F)(F)F)cc1)C1CCCc2ccccc21 (centres unmarked) [Compound 266] was tested. Which “Chemotaxis Assay 10 µM (inhibition %)” value did it give?
A: 100%

Q: For CC(c1cccc2ccccc12)N(CCCNC(=O)Nc1ccc(Br)cc1)CCCC(=O)O (centres unmarked) [Compound 268], which “Chemotaxis Assay 10 µM (inhibition %)” value is on record?
A: 100%

Q: For CC(c1ccc2ccccc2c1)N(CCCNC(=O)Nc1ccc(Br)cc1)CCCC(=O)O (centres unmarked) [Compound 270], which “Chemotaxis Assay 10 µM (inhibition %)” value is on record?
A: 100%

Q: How did the “Chemotaxis Assay 10 µM (inhibition %)” value turn out when CCC(c1ccccc1)N(CCCNC(=O)Nc1ccc(Br)cc1)CCCC(=O)O (centres unmarked) [Compound 271] was run?
A: 100%

Q: Which “Chemotaxis Assay 10 µM (inhibition %)” value does the source give for O=C(O)CCCN(CCCNC(=O)Nc1ccc(Br)cc1)C1c2ccccc2CC1O (centres unmarked) [Compound 273] here?
A: 88%

Q: COC(=O)CCCN(CCCNC(=O)Nc1ccccc1)CCc1ccc(Cl)cc1 [Compound 274] was tested. Which “Chemotaxis Assay 10 µM (inhibition %)” value did it give?
A: 60%

Q: For COCCN(CCCNC(=O)Nc1ccccc1)CCc1ccc(Cl)cc1 [Compound 275], which “Chemotaxis Assay 10 µM (inhibition %)” value is on record?
A: 100%

Q: How did the “Chemotaxis Assay 10 µM (inhibition %)” value turn out when CC(C)N(CCCNC(=O)Nc1ccccc1)CCc1ccc(Cl)cc1 [Compound 276] was run?
A: 100%

Q: O=C(O)CCCN(CCCNC(=O)Nc1ccc(-c2ccccc2)cc1)C1CCCc2ccccc21 (centres unmarked) [Compound 277] was tested. Which “Chemotaxis Assay 10 µM (inhibition %)” value did it give?
A: 76%

Q: CC(=O)c1ccc(NC(=O)NCCCN(CCCC(=O)O)C2CCCc3ccccc32)cc1 (centres unmarked) [Compound 278] was tested. Which “Chemotaxis Assay 10 µM (inhibition %)” value did it give?
A: 100%

Q: O=C(NCCCN(CCc1cccc(Cl)c1)Cc1ccccc1)Nc1ccccc1 [Compound 280] was tested. Which “Chemotaxis Assay 10 µM (inhibition %)” value did it give?
A: 60%

Q: For N#Cc1ccc(CN(CCCNC(=O)Nc2ccccc2)CCc2ccc(Cl)cc2)cc1 [Compound 291], which “Chemotaxis Assay 10 µM (inhibition %)” value is on record?
A: 53%

same assay, conditions: U-937; 10 µM test compound; eotaxin 1 x 10^-9 M; CCR3/U937 cells (Table 3a)

Q: With O=C(NCCCN(CCCc1nnnn1C(c1ccccc1)(c1ccccc1)c1ccccc1)C1CCCc2ccccc21)Nc1ccc(Br)cc1 (centres unmarked) [Compound 217, 3-[[3-(4-bromophenylureido)propyl](1,2,3,4-tetrahydro-1-naphthyl)amino]-1-[1-(triphenylmethyl)tetrazol-5-yl]propane] as the compound, how does the inhibition at 10 µM read?
A: 87%

Q: For O=C(NCCCN(CCCc1nnn[nH]1)C1CCCc2ccccc21)Nc1ccc(Br)cc1 (centres unmarked) [Compound 218, 3-[[3-(4-Bromophenylureido)propyl](1,2,3,4-tetrahydro-1-naphthyl)amino]-1-(1H-tetrazol-5-yl)propane], which inhibition at 10 µM is on record?
A: 99%

Q: COc1ccc([C@@H](C)N(CCCNC(=O)Nc2ccc(Br)cc2)CCCC(=O)O)cc1 [Compound 227, 4-[[3-(4-Bromophenylureido)propyl][(1R)-1-(4-methoxyphenyl)ethyl]amino]butanoic acid] was tested. Which inhibition at 10 µM did it give?
A: 100%

Q: CCOC(=O)c1ccc(NC(=O)NCCCN(CCCC(=O)O)C2CCCc3ccccc32)cc1 (centres unmarked) [Compound 228, 4-[[3-[4-(Ethoxycarbonyl)phenylureido]propyl](1,2,3,4-tetrahydro-1-naphthyl)amino]butanoic acid] was tested. Which inhibition at 10 µM did it give?
A: 100%

Q: Which inhibition at 10 µM does the source give for O=C(O)CCCN(CCCNC(=O)Nc1ccc(I)cc1)C1CCCc2ccccc21 (centres unmarked) [Compound 229, 4-[[3-(4-Iodophenylureido)propyl](1,2,3,4-tetrahydro-1-naphthyl)amino]butanoic acid] here?
A: 100%

Q: Which inhibition at 10 µM does the source give for O=C(NCCCN(CCc1ccc(Cl)cc1)CCc1ccc(Cl)cc1)Nc1ccccc1 [Compound 238, [3-(Phenylureido)propyl]bis[2-(4-chlorophenyl)ethyl]amine] here?
A: 69%

Q: Which inhibition at 10 µM does the source give for C[C@H](c1ccc(Br)cc1)N(CCCNC(=O)Nc1ccc(Br)cc1)CCCC(=O)O [Compound 258, 4-[[3-(4-Bromophenylureido)propyl] [(1R)-1-(4-bromophenyl)ethyl]amino]butanoic acid] here?
A: 100%

Q: CC(c1ccc(F)cc1)N(CCCNC(=O)Nc1ccc(Br)cc1)CCCC(=O)O (centres unmarked) [Compound 269, 4-[[3-(4-Bromophenylureido)propyl][1-(4-fluorophenyl)ethyl]amino]butanoic acid] was tested. Which inhibition at 10 µM did it give?
A: 100%

Q: How did the inhibition at 10 µM turn out when CC(c1ccc(Cl)cc1)N(CCCNC(=O)Nc1ccc(Br)cc1)CCCC(=O)O (centres unmarked) [Compound 272, 4-[[3-(4-Bromophenylureido)propyl][1-(4-chlorophenyl)ethyl]amino]butanoic acid] was run?
A: 89%
